For 29 compounds, IC50 results are on record in US20230399341A1, “7-PHENYL SUBSTITUTED 2-AMINOQUINAZOLINE INHIBITORS OF HPK1” (MERCK SHARP & DOHME LLC, priority 2020, published 2023).

The experiment has as its target T1, Human HPK1, catalytic domain (Homo sapiens, UniProt Q92918).
T1 sequence (Q92918 1-346): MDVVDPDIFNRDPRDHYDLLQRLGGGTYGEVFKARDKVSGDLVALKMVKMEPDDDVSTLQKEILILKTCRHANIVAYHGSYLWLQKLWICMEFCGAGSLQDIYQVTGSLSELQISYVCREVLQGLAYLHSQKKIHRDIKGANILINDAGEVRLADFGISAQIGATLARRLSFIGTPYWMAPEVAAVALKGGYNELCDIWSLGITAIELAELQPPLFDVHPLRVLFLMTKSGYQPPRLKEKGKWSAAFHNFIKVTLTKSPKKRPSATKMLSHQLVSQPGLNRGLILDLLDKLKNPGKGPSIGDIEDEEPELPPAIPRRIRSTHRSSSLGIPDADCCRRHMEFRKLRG
Put plainly: HPK1-SLP76 TR-FRET Assay. The class given is biochemical. The note with it: 75 pM HPK1, ATP 10 uM, SLP76 10 nM, 30 min pre-incubation, 60 min reaction.
The compound `COc1cc2c(cc1Nc1ncc3ccc(Nc4cccc(S(C)(=O)=O)c4)cc3n1)CN(C)CC2` [Compound 3-33, N~2~-(6-methoxy-2-methyl-1,2,3,4-tetrahydroisoquinolin-7-yl)-N~7~-[3-(methylsulfon-yl)phenyl]quinazoline-2,7-diamine] returned an IC50 of 18.4 nM. As for `COc1cc2c(cc1Nc1ncc3ccc(Nc4cccc(C(=O)N(C)C)c4)cc3n1)CN(C)CC2` [Compound 3-34, 3-({2-[(6-methoxy-2-methyl-1,2,3,4-tetrahydroisoquinolin-7-yl)amino]quinazolin-7-yl}-amino)-N,N-dimethylbenzamide], the figure is 81.5 nM; as for `COc1cc2c(cc1Nc1ncc3ccc(Nc4nccc(CO)n4)cc3n1)CN(C)CC2` [Compound 3-35, [2-({2-[(6-methoxy-2-methyl-1,2,3,4-tetrahydroisoquinolin-7-yl)amino]quinazolin-7-yl}-amino)pyrimidin-4-yl]methanol], 1.67 nM; as for `COc1cc2c(cc1Nc1ncc3ccc(Nc4cc(S(C)(=O)=O)ccc4F)cc3n1)CN(C)CC2` [Compound 3-36, N~7~-[2-fluoro-5-(methyl-sulfonyl)phenyl]-N~2~-(6-methoxy-2-methyl-1,2,3,4-tetra-hydroisoquinolin-7-yl)quinaz-oline-2,7-diamine], 4.17 nM.

Regarding `COc1cc2c(cc1Nc1ncc3ccc(NC4CCN(C(C)=O)CC4)cc3n1)CN(C)CC2` [Compound 3-38, 1-[4-({2-[(6-methoxy-2-methyl-1,2,3,4-tetrahydroisoquinolin-7-yl)amino]quinazolin-7-yl}-amino)piperidin-1-yl]ethan-1-one], half-maximal inhibition (IC50) was put at 369 nM. As for `COc1cc2c(cc1Nc1ncc3ccc(Nc4cc(CO)ccn4)cc3n1)CN(C)CC2` [Compound 3-40, [2-({2-[(6-methoxy-2-methyl-1,2,3,4-tetrahydroisoquinolin-7-yl)amino]quinazolin-7-yl}-amino)pyridin-4-yl]methanol], the figure is 0.889 nM. As for `COc1cc2c(cc1Nc1ncc3ccc(Nc4cc(C(N)=O)ccn4)cc3n1)CN(C)CC2` [Compound 3-41, 2-({2-[(6-methoxy-2-methyl-1,2,3,4-tetrahydroisoquinolin-7-yl)amino]quinazolin-7-yl}-amino)pyridine-4-carboxamide], the figure is 10 nM; as for `COc1cc2c(cc1Nc1ncc3ccc(Nc4cc(S(C)(=O)=O)c(C)cc4C)cc3n1)CN(C)CC2` [Compound 3-42, N~7~-[2,4-dimethyl-5-(methyl-sulfonyl)phenyl]-N~2~-(6-methoxy-2-methyl-1,2,3,4-tetra-hydroisoquinolin-7-yl)quinaz-oline-2,7-diamine], 3.17 nM.

`COc1cc2c(cc1Nc1ncc3ccc(Nc4cccc(N5CCN(C)C5=O)c4)cc3n1)CN(C)CC2` [Compound 3-43, 1-[3-({2-[(6-methoxy-2-methyl-1,2,3,4-tetrahydroisoquinolin-7-yl)amino]quinazolin-7-yl}-amino)phenyl]-3-methylimidaz-olidin-2-one] yielded an IC50 of 68.5 nM.

Regarding `COc1cc2c(cc1Nc1ncc3ccc(Nc4ccc(C)c(S(N)(=O)=O)c4)cc3n1)CN(C)CC2` [Compound 3-44, 5-({2-[(6-methoxy-2-methyl-1,2,3,4-tetrahydroisoquinolin-7-yl)amino]quinazolin-7-yl}-amino)-2-methylbenzene-1-sulfonamide], the IC50 was found to be 13 nM.

Regarding `COc1cc2c(cc1Nc1ncc3ccc(NC[C@@H]4CCC(=O)N4)cc3n1)CN(C)CC2` [Compound 3-45, (5S)-5-[({2-[(6-methoxy-2-meth-yl-1,2,3,4-tetrahydroisoquinolin-7-yl)amino]quinazolin-7-yl}-amino)methyl]pyrrolidin-2-one], it took 292 nM to reach half-maximal inhibition (IC50). As for `COc1cc2c(cc1Nc1ncc3ccc(N[C@H]4CC[C@@H](O)CC4)cc3n1)CN(C)CC2` [Compound 3-46, (1s,4s)-4-((2-((6-methoxy-2-methyl-1,2,3,4-tetrahydroiso-quinolin-7-yl)amino)quinazolin-7-yl)amino)cyclohexan-1-ol], the figure is 118 nM; as for `COc1cc2c(cc1Nc1ncc3ccc(N[C@H]4CCCOCC4)cc3n1)CN(C)CC2` [Compound 3-47, (S)-N2-(6-methoxy-2-methyl-1,2,3,4-tetrahydroisoquinolin-7-yl)-N7-(oxepan-4-yl)quinaz-oline-2,7-diamine], 170 nM; as for `COc1cc2c(cc1Nc1ncc3ccc(N[C@H]4CCN(C)C4=O)cc3n1)CN(C)CC2` [Compound 3-49, (3S)-3-({2-[(6-methoxy-2-meth-yl-1,2,3,4-tetrahydroisoquinolin-7-yl)amino]quinazolin-7-yl}-amino)-1-methylpyrrolidin-2-one], 96.7 nM. As for `COc1cc2c(cc1Nc1ncc3ccc(N4CCC[C@H](N5CCOC5=O)C4)cc3n1)CN(C)CC2` [Compound 3-50, 3-[(3S)-1-{2-[(6-methoxy-2-methyl-1,2,3,4-tetrahydroiso-quinolin-7-yl)amino]quinazolin-7-yl}piperidin-3-yl]-1,3-oxazol-idin-2-one], the figure is 771 nM.

For `COc1cc2c(cc1Nc1ncc3ccc(NC4CC(OC)C4)cc3n1)CN(C)CC2` (centres unmarked) [Compound 3-51, N~7~-(3-methoxycyclobutyl)-N~2~-(6-methoxy-2-methyl-1,2,3,4-tetrahydroisoquinolin-7-yl)quinazoline-2,7-diamine], the midpoint of inhibition, the IC50, lay at 234 nM. As for `COc1cc2c(cc1Nc1ncc3ccc(NCc4noc(C)n4)cc3n1)CN(C)CC2` [Compound 3-52, N~2~-(6-methoxy-2-methyl-1,2,3,4-tetrahydroisoquinolin-7-yl)-N~7~-[(5-methyl-1,2,4-oxadiazol-3-yl)methyl]quinaz-oline-2,7-diamine], the figure is 97.9 nM; as for `COc1cc2c(cc1Nc1ncc3ccc(N4CC(C(N)=O)C4)cc3n1)CN(C)CC2` [Compound 3-53, 1-{2-[(6-methoxy-2-methyl-1,2,3,4-tetrahydroisoquinolin-7-yl)amino]quinazolin-7-yl}-azetidine-3-carboxamide], 669 nM; as for `COc1cc2c(cc1Nc1ncc3ccc(NC4(C)COC4)cc3n1)CN(C)CC2` [Compound 3-55, N~2~-(6-methoxy-2-methyl-1,2,3,4-tetrahydroisoquinolin-7-yl)-N~7~-(3-methyloxetan-3-yl)quinazoline-2,7-diamine], 240 nM. As for `COc1cc2c(cc1Nc1ncc3ccc(N4CCn5c(C)nnc5C4)cc3n1)CN(C)CC2` [Compound 3-57, N-(6-methoxy-2-methyl-1,2,3,4-tetrahydroisoquinolin-7-yl)-7-(3-methyl-5,6-dihydro[1,2,4]-triazolo[4,3-a]pyrazin-7(8H)-yl)quinazolin-2-amine], the figure is 799 nM.

`COc1cc2c(cc1Nc1ncc3ccc(N[C@H]4CCC[C@@H]4O)cc3n1)CN(C)CC2` [Compound 3-58, (1S,2S)-2-({2-[(6-methoxy-2-methyl-1,2,3,4-tetrahydroiso-quinolin-7-yl)amino]quinazolin-7-yl}amino)cyclopentan-1-ol] had an IC50 of 180 nM. In turn, `COc1cc2c(cc1Nc1ncc3ccc(NC4(C(=O)N(C)C)CCC4)cc3n1)CN(C)CC2` [Compound 3-61, 1-({2-[(6-methoxy-2-methyl-1,2,3,4-tetrahydroisoquinolin-7-yl)amino]quinazolin-7-yl}-amino)-N,N-dimethylcyclo-butane-1-carboxamide] registered an IC50 of 824 nM.

In the case of `COc1cc2c(cc1Nc1ncc3ccc(NCC4(C)COC4)cc3n1)CN(C)CC2` [Compound 3-62, N~2~-(6-methoxy-2-methyl-1,2,3,4-tetrahydroisoquinolin-7-yl)-N~7-[(3-methyloxetan-3-yl)-methyl]quinazoline-2,7-diamine], it took 111 nM to reach half-maximal inhibition (IC50).

Compound `COc1cc2c(cc1Nc1ncc3ccc(NCc4cnsn4)cc3n1)CN(C)CC2` [Compound 3-63, N~2~-(6-methoxy-2-methyl-1,2,3,4-tetrahydroisoquinolin-7-yl)-N~7-[(1,2,5-thiadiazol-3-yl)-methyl]quinazoline-2,7-diamine] registered an IC50 of 38.3 nM. As for `COc1cc2c(cc1Nc1ncc3ccc(NCC(=O)N4CCOCC4)cc3n1)CN(C)CC2` [Compound 3-64, 2-({2-[(6-methoxy-2-methyl-1,2,3,4-tetrahydroisoquinolin-7-yl)amino]quinazolin-7-yl}-amino)-1-(morpholin-4-yl)ethan-1-one], the figure is 115 nM; as for `COc1cc2c(cc1Nc1ncc3ccc(NCC(=O)N4CCCC4)cc3n1)CN(C)CC2` [Compound 3-65, 2-({2-[(6-methoxy-2-methyl-1,2,3,4-tetrahydroisoquinolin-7-yl)amino]quinazolin-7-yl}-amino)-1-(pyrrolidin-1-yl)ethan-1-one], 136 nM. For the compound `COc1cc2c(cc1Nc1ncc3ccc(NC4(C(=O)N(C)C)CC4)cc3n1)CN(C)CC2` [Compound 3-66, 1-({2-[(6-methoxy-2-methyl-1,2,3,4-tetrahydroisoquinolin-7-yl)amino]quinazolin-7-yl}-amino)-N,N-dimethylcyclopro-pane-1-carboxamide], the IC50 is 294 nM. As for `COc1cc2c(cc1Nc1ncc3ccc(N[C@@H]4COC[C@@H]4F)cc3n1)CN(C)CC2` [Compound 3-67, N~7~-[(3R,4R)-4-fluorooxolan-3-yl]-N~2~-(6-methoxy-2-meth-yl-1,2,3,4-tetrahydroisoquinolin-7-yl)quinazoline-2,7-diamine], the figure is 108 nM. As for `COCC1CN(c2ccc3cnc(Nc4cc5c(cc4OC)CCN(C)C5)nc3c2)C1` [Compound 3-68, 7-[3-(methoxymethyl)azetidin-1-yl]-N-(6-methoxy-2-methyl-1,2,3,4-tetrahydroisoquinolin-7-yl)quinazolin-2-amine], the figure is 520 nM.

A word on the IC50: it is the midpoint of a concentration-inhibition curve.
